Where two headings read alike, the source gives them in different places. [invdT] = inverted (3'-3') thymidine; d = 2'-deoxy (DNA); m = 2'-O-methyl Bounds are passed on as bounds.

For data set [1], the system named is full length human vWF (SEQ ID NO 7). Nature of the data set: dot blot KD determination and extent of binding, full length human vWF.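 For all read-outs here: dot blot binding of aptamers to full length human vWF across a protein titration, incubated 30 minutes at room temperature in 1x DPBS with BSA.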 Conditions: for % binding @ 100 nM vWF: extent of aptamer binding at 100 nM full length human vWF; for Kd: full length human vWF, read-out: KD.
Description: Based on this initial screen, KDs were determined for 3 of the vWF dependent binding sequences using the dot blot assay. […] A 12 point protein titration was used in the dot blot assay (300 nM, 100 nM, 30 nM, 10 nM, 3 nM, 1 nM, 300 pM, 100 pM, 30 pM, 10 pM, 3 pM, 0 pM) in 1×DPBS plus 0.1 mg/mL BSA at room temperature for 30 minutes.
An 8 point protein titration was used in the dot blot binding assay (100n M, 30 nM, 10 nM, 3 nM, 1 nM, 300 pM, 100 pM, 0 pM)) in 1× Dulbecco's PBS containing 0.1 BSA (final volume of 50 uL) for 30 minutes at room temperature.
The test system of data set [2] is full length human vWF binding to lyophilized platelets. Nature of the data set: Full length human von Willebrand Factor platelet binding assay (FACS). The note with it: read-out: FACS IC50 vs human full length vWF. The data set is classed as cell-based. The procedure, abridged:
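Aptamer titrations (0.1–1000 nM) pre-incubated with 5 nM full-length human vWF, then added to lyophilized platelets plus botrocetin for 15 min at 37 °C in PBS/0.5% BSA. Bound vWF detected by anti-vWF then FITC secondary antibody via flow cytometry MFI; % inhibition versus no-aptamer binding fitted for IC50.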

Data set [3] concerns rabbit vWF domain A1 binding to lyophilized platelets. Nature of the data set: Rabbit von Willebrand Factor domain A1 platelet binding assay (FACS). The class given is cell-based. The note with it: read-out: FACS IC50 vs rabbit A1 domain. The method, then: Botrocetin induces the binding of the A1 domain of vWF to platelets, as well as the full length protein. It was determined by the inventors that 6-Histidine-tagged rabbit A1 domain vWF purified protein could be induced to bind to human lyophilized platelets with botrocetin. Rabbit A1 binding to platelets is measured with an anti-poly-His antibody followed by incubation with a phycoerythrin conjugated secondary antibody. The degree of binding can be quantified by flow cytometric analysis. The ability of aptamers to block the binding of rabbit A1 to human fixed platelets was correlated with decreased fluorescence signal.
rabbit vWF domain A1 binding to lyophilized platelets, sequence (as listed by the source): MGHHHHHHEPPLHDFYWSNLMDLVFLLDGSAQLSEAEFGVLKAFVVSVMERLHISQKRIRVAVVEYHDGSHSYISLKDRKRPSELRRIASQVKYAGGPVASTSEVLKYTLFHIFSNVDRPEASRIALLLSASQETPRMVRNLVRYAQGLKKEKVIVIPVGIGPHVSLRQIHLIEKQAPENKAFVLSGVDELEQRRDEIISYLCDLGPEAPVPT
The ability of aptamers of the invention to block rabbit vWF domain A1 binding to lyophilized platelets was also assessed by flow cytometric analysis. Titrations of aptamers (zero, 0.1 nM to 1000 nM) were preincubated briefly with 4 nM of rabbit A1 vWF in FACS buffer (PBS plus 0.5% bovine serum albumin) at room temperature in a volume of 50 uL. Another 50 uL containing 5 uL of lyophilized platelets plus 1 uL of 0.1 U/uL of botrocetin in FACS buffer was added to aptamer/vWF. This reaction was allowed to proceed for 15 minutes at 37 degrees C. after which 200 uL of FACS buffer was added. Platelets were collected by a 6 minute spin at 1470 RCF and the supernatant was discarded. The pellets were resuspended in 100 uL of FACS buffer containing a 1:200 dilution of anti-Penta-HIS-biotin conjugate antibody and were incubated at room temperature for 30 minutes. After the dilution with 200 uL of FACS buffer, the platelets were spun at 1470 RCF for 6 minutes, and the supernatant was discarded. The pellets were resuspended in a 1:100 solution of anti-IgG-PE antibody and were incubated in the dark for 30 minutes at room temperature. The entire 100 uL was diluted into 200 uL of FACS buffer and analyzed immediately by flow cytometric analysis in the FACSCAN. Contaminating debris was eliminated from the analysis by drawing a gate around the population of single and aggregated platelets and collecting data from 10000 events. Median fluorescent intensity (“MedFI”) readings (which are generally equivalent to the MFI readings, described in Example 3a above, for comparative purposes) were quantified for each sample analyzed by flow cytometry. Background MedFI was subtracted from all data points. Percent inhibition was reported by calculating the percent value of binding of […] to platelets in the presence of aptamer at a given concentration relative to binding in the absence of any aptamer (see FIG. 7). IC50 values were determined by fitting the percent inhibition of vWF binding to platelets as a function of aptamer concentration to the equation: % inhibition=% inhibitionmax/(1+IC50/aptamer conc.)

Experiment in data set [4]: not given
This is another data set of the same source.

Data set [5] deals with botrocetin induced platelet aggregation. Nature of the data set: Inhibition of botrocetin induced platelet aggregation (BIPA) in human PRP. The note with it: human platelet rich plasma. The data set is classed as cell-based. The procedure, abridged: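 Fresh human platelet-rich plasma, prewarmed at 37 degrees C, was preincubated one minute with aptamer (zero, 1 nM to 1000 nM) before botrocetin at a per-donor titrated aggregating concentration. Aggregation was followed as light transmittance; the value is the concentration blocking aggregation by 90% or greater after 6 minutes.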

The term Kd denotes the free concentration of one partner at which half of the binding sites on the other are occupied at equilibrium, for simple one-to-one binding. Consider “mCmGmGmCdCmG-s-TmGdCdGdGTmGmCdCmUdCdCmGmUmCmAmCPEGmGmUdGdCdAmGmUmGmCmCmG-3T (CGGCCGTGCGGTGCCUCCGUCACGUGCAGUGCCGT; chemistry not fully specified) [ARC1533]”, for which the “T½ Human plasma” value was 93 h. Further, in data set [1] (Phase 4 and 5 modification), the “% binding @ 100 nM vWF” value was found to be 31.7% and the Kd amounted to 4 nM.

What is called IC50 is the concentration at which inhibition is half-maximal. One may read the IC90 as the point of the concentration-response curve where the effect stands at 90%. High values mean a need for much substance, low ones an effect from little substance. For the substance “mGmCmGmUdGdCdAmGmUmGmCmCmUmUmCmGmGmCdCmGTmGdCdGdGTmGmCdCmUdCdCmGmUmCmAmCmGmC-3T (GCGUGCAGUGCCUUCGGCCGTGCGGTGCCUCCGUCACGC; sugars from the 5' end mmmmdddmmmmmmmmmmmdmdmddddmmdmddmmmmmmm, [invdT] at 3' end, backbone and methylation of C not given here) [ARC1346]”, the “% binding @ 100 nM vWF” value in data set [1] (Phase 2 modification) was determined as 51%. For the same substance, the Kd in data set [1] (Phase 2 modification) was 11 nM. Besides, the “binding to human vWF” value in data set [1] (in words, dot blot) is listed as “the most potent”. Moreover, the IC50 in data set [2] turned out to be 50 nM; in data set [3] it was 180 nM. The “T½ Rat plasma” value in data set [4] worked out at 19 h. In addition, in data set [5], the IC90 is above 1000 nM.
